Measured values published in patent US20080293727A1, “Novel sulfonamide inhibitors of aspartyl protease” (priority 1992, published 2008).
Counter-ions that a name gives are not always drawn. Like-named read-outs stand apart in the source and are kept apart here.

Legend:
[1] = system: HIVIIIb in CCRM-CEM cells; assay: Anti-viral potency in CCRM-CEM cells acutely infected with HIVIIIb, extracellular p24 antigen readout (method of Meek et al.); type: cell-based, HIV-1
Experimental: Compounds of formula I were tested for their antiviral potency in several virological assays.
The effect of the compounds on inhibiting the replication of the virus was measured by determining the HIV extracellular p24 antigen concentration using a commercial enzyme immunoassay (obtained from Coulter Corporation, Hialeah, Fla.).
In Table VIII, the following classifications have been employed: • A: inhibits HIV replication at concentration of 100 nM or less. • B: inhibits HIV replication at concentration of between 101 and 1,000 nM. • C: inhibits HIV replication at a concentration of between 1,001 and 10,000 nM. • D: inhibits HIV replication at a concentration of between 10,001 and 40,000 nM. • ND: not tested.

[2] = molecular target: HIV-1 protease (Human immunodeficiency virus type 1 group M subtype B, UniProt P04585); assay: Inhibition constants against HIV-1 protease (method of Pennington et al.); type: biochemical
Text: We measured the inhibition constants of the compounds listed in Table VII against HIV-1 protease using the above-cited method of Pennington et al.

[3] = CCRM-CEM cells, HIV replication, read-out: IC90 Range
[4] = HIV-1 protease, read-out: Ki value
[5] = Human immunodeficiency virus 1, read-out: IC90 Range

Row | SMILES | IC90 [1, 3] [nM] | Ki [2, 4] [nM] | IC90 [1, 5] [nM] | IC90 ([1]; Human immunodeficiency virus 1, CCRM-CEM cells, HIV replication, read-out: IC90 Range) [nM] | Ki [2] [nM]
1 | CC(C)CN(CC(O)[C@H](Cc1ccccc1)NC(=O)O[C@H]1CCOC1)S(=O)(=O)c1cccnc1 (stereo partly drawn) [Compound 144, Pyridine-3-sulfonic acid ((2 syn,3S)-2-hydroxy-4-phenyl-3-((S)-tetrahydrofuran-3-yloxycarbonylamino)-butyl)-isobutyl-amide, trifluoroacetic acid salt] | 101 to 1000 | 8 | – | – | –
2 | CC(=O)N1CCc2ccc(S(=O)(=O)N(CC3CCCC3)CC(O)[C@H](Cc3ccccc3)NC(=O)O[C@H]3CCOC3)cc21 (stereo partly drawn) [Compound 157, 1-Acetyl-2,3-dihydro-1H-indole-6-sulfonic acid cyclopentylmethyl-((2 syn, 3S)-2-hydroxy-4-phenyl-3-((S)-tetrahydrofuran-3-yloxycarbonylamino)-butyl)-amide] | 101 to 1000 | 0.7 | – | – | –
3 | CCC(C)C(NC(=O)OCc1ccccc1)C(=O)NC(Cc1ccccc1)C(O)CN(CC(C)C)S(=O)(=O)c1ccc(F)c(NC(C)=O)c1 [Compound 187, Benzyloxycarbonyl-(L)-isoleucine-N-(5-((3-amino-(2 syn,3S)-2-hydroxy-4-phenyl-butyl)-isobutyl-sulfamoyl)-2-fluoro-phenyl)-acetamide] | – | 0.3 | 101 to 1000 | – | –
4 | CCC(C)C(NC(=O)c1cnc2ccccc2n1)C(=O)NC(Cc1ccccc1)C(O)CN(CC(C)C)S(=O)(=O)c1ccc(F)c(NC(C)=O)c1 (stereo not drawn) [Compound 188] | – | 11.5 | 1000 to 10000 | – | –
5 | CC(C)CN(C[C@@H](O)[C@H](Cc1ccccc1)NC(=O)O[C@H]1CCOC1)S(=O)(=O)c1ccc(O)c(N)c1 [Compound 1004] | – | 0.2 | < 100 | – | –
6 | Nc1ccc(S(=O)(=O)N(CC2CCCC2)C[C@@H](O)[C@H](Cc2ccccc2)NC(=O)O[C@H]2CCOC2)cc1N [Compound 1015] | – | – | – | < 100 | 19
